In patent US9993494B2, “Compositions and methods for treating fibrotic disease” (eFFECTOR Therapeutics, Inc., priority 2014, dated 2018):

Test system: normal human lung fibroblasts
Assay: Ribosomal profiling: translational efficiency in TGFβ-treated fibroblasts
Assay type: cell-based
Details: TGFβ-treated fibroblasts
Description: Ribosomal profiling allows for measurement of changes in transcription and translation on a genome-wide basis accompanying TGFβ-dependent transformation of fibroblasts to myofibroblasts. Ribosomal profiles of the TGFβ-treated fibroblasts from Example 1 (about 6×10^6 cells/10 cm plate) were prepared and analyzed for changes in translational efficiencies with respect to potential disease-associated cellular changes accompanying this TGFβ-induced transformation.
Briefly, cells were washed with cold PBS supplemented with cycloheximide and lysed with 1× mammalian cell lysis buffer for 10 minutes on ice. Lysates were clarified by centrifugation for 10 minutes at 14,000 rpm and supernatants were collected. Cell lysates were processed to generate ribosomal protected fragments and total mRNA according to the instructions included with the ARTseq Ribosome Profiling Kit (Illumina, San Diego, Calif.). Sequencing of total RNA (RNA) and of ribosome-protected fragments of RNA (RPF) was carried out using RNA-Seq methodology according to the manufacturer's instructions (Illumina). To analyze the ribosomal profiles, RNA-Seq reads were processed with tools from the FASTX-Toolkit (fastq_quality_trimmer, fastx_clipper and fastx_trimmer). Unprocessed and processed reads were evaluated for a variety of quality measures using FastQC, and processed reads were mapped to the human genome using TopHat (see, e.g., Trapnell et al., Bioinformatics 25:1105, 2009). Gene-by-gene assessment of the number of fragments strictly and uniquely mapping to the coding region of each gene was conducted using HTSeq-count, a component of the HTSeq package. […] Genes with low counts in either RPF or RNA were excluded from differential analyses. Pathway and network analyses of differential data were conducted using Ingenuity Pathway Analysis (IPA).

CC(C)n1nc(-c2cc3cc(O)ccc3[nH]2)c2c(N)ncnc21 [PP242]
renormalizing the translational profile of DNASE1L1 (ENSG00000013563): − (− = <0.9) | renormalizing the translational profile of ADAMTS6 (ENSG00000049192): − (− = <0.9) | renormalizing the translational profile of LETMD1 (ENSG00000050426): − (− = <0.9) | renormalizing the translational profile of PLEKHA5 (ENSG00000052126): − (− = <0.9) | renormalizing the translational profile of EIF4B (ENSG00000063046): + (+ = 0.9 to 1.5) | renormalizing the translational profile of RPL18 (ENSG00000063177): + (+ = 0.9 to 1.5) | renormalizing the translational profile of HIPK2 (ENSG00000064393): − (− = <0.9) | renormalizing the translational profile of ASPM (ENSG00000066279): + (+ = 0.9 to 1.5) | renormalizing the translational profile of RASSF1 (ENSG00000068028): − (− = <0.9) | renormalizing the translational profile of PABPC1 (ENSG00000070756): − (− = <0.9) | renormalizing the translational profile of RPL31 (ENSG00000071082): + (+ = 0.9 to 1.5) | renormalizing the translational profile of PLD1 (ENSG00000075651): − (− = <0.9) | renormalizing the translational profile of EDN1 (ENSG00000078401): − (− = <0.9) | renormalizing the translational profile of AURKA (ENSG00000087586): − (− = <0.9) | renormalizing the translational profile of EPB41L1 (ENSG00000088367): − (− = <0.9) | renormalizing the translational profile of RPL6 (ENSG00000089009): − (− = <0.9) | renormalizing the translational profile of P2RX7 (ENSG00000089041): + (+ = 0.9 to 1.5) | renormalizing the translational profile of RPLP0 (ENSG00000089157): − (− = <0.9) | renormalizing the translational profile of IGBP1 (ENSG00000089289): − (− = <0.9) | renormalizing the translational profile of IRAK3 (ENSG00000090376): − (− = <0.9) | renormalizing the translational profile of PABPC4 (ENSG00000090621): − (− = <0.9) | renormalizing the translational profile of FMO2 (ENSG00000094963): +++ (+++ = >2.0) | renormalizing the translational profile of ACOT7 (ENSG00000097021): − (− = <0.9) | renormalizing the translational profile of ATP5D (ENSG00000099624): − (− = <0.9) | renormalizing the translational profile of LGALS1 (ENSG00000100097): − (− = <0.9) | renormalizing the translational profile of EIF3L (ENSG00000100129): − (− = <0.9) | renormalizing the translational profile of RPL3 (ENSG00000100316): − (− = <0.9) | renormalizing the translational profile of CEP192 (ENSG00000101639): − (− = <0.9) | renormalizing the translational profile of AMMECR1 (ENSG00000101935): − (− = <0.9) | renormalizing the translational profile of PLP2 (ENSG00000102007): − (− = <0.9) | renormalizing the translational profile of EIF3E (ENSG00000104408): + (+ = 0.9 to 1.5) | renormalizing the translational profile of EEF1D (ENSG00000104529): − (− = <0.9) | renormalizing the translational profile of C19orf53 (ENSG00000104979): − (− = <0.9) | renormalizing the translational profile of GLTSCR2 (ENSG00000105373): + (+ = 0.9 to 1.5) | renormalizing the translational profile of RAB3D (ENSG00000105514): + (+ = 0.9 to 1.5) | renormalizing the translational profile of RPL18A (ENSG00000105640): + (+ = 0.9 to 1.5) | renormalizing the translational profile of COMP (ENSG00000105664): − (− = <0.9) | renormalizing the translational profile of GLCCI1 (ENSG00000106415): + (+ = 0.9 to 1.5) | renormalizing the translational profile of CORO2A (ENSG00000106789): − (− = <0.9) | renormalizing the translational profile of GDF10 (ENSG00000107623): − (− = <0.9) | renormalizing the translational profile of RPL28 (ENSG00000108107): − (− = <0.9) | renormalizing the translational profile of RPL19 (ENSG00000108298): − (− = <0.9) | renormalizing the translational profile of RASD1 (ENSG00000108551): − (− = <0.9) | renormalizing the translational profile of NAT9 (ENSG00000109065): − (− = <0.9) | renormalizing the translational profile of RPL34 (ENSG00000109475): − (− = <0.9) | renormalizing the translational profile of CRYAB (ENSG00000109846): − (− = <0.9) | renormalizing the translational profile of GAPDH (ENSG00000111640): + (+ = 0.9 to 1.5) | renormalizing the translational profile of C12orf57 (ENSG00000111678): − (− = <0.9) | renormalizing the translational profile of MDFI (ENSG00000112559): − (− = <0.9) | renormalizing the translational profile of HBEGF (ENSG00000113070): − (− = <0.9) | renormalizing the translational profile of RPL24 (ENSG00000114391): − (− = <0.9) | renormalizing the translational profile of EEF1B2 (ENSG00000114942): − (− = <0.9) | renormalizing the translational profile of IFIH1 (ENSG00000115267): + (+ = 0.9 to 1.5) | renormalizing the translational profile of DPH5 (ENSG00000117543): − (− = <0.9) | renormalizing the translational profile of PPL (ENSG00000118898): − (− = <0.9) | renormalizing the translational profile of PLEKHG1 (ENSG00000120278): − (− = <0.9) | renormalizing the translational profile of LIAS (ENSG00000121897): − (− = <0.9) | renormalizing the translational profile of GPSM2 (ENSG00000121957): − (− = <0.9) | renormalizing the translational profile of RPL21 (ENSG00000122026): − (− = <0.9) | renormalizing the translational profile of RPL5 (ENSG00000122406): + (+ = 0.9 to 1.5) | renormalizing the translational profile of INHBA (ENSG00000122641): − (− = <0.9) | renormalizing the translational profile of CIT (ENSG00000122966): − (− = <0.9) | renormalizing the translational profile of RPL23 (ENSG00000125691): − (− = <0.9) | renormalizing the translational profile of LAMP5 (ENSG00000125869): − (− = <0.9) | renormalizing the translational profile of NECAB3 (ENSG00000125967): − (− = <0.9)
